What was measured:
Assay type in all cases: biochemical, influenza A(H3N2) virus
[1] = target: A/Victoria/361/2011 NA with T148I (Q136, I148, R150, T439) (Influenza A virus, UniProt G9LQ08, H150R/T148I)
[2] = target: A/Victoria/361/2011 NA with T439R (Q136, T148, R150, R439) (Influenza A virus, UniProt G9LQ08, H150R/T439R)
[3] = target: A/Victoria/361/2011 NA with Q136K (K136, T148, R150, T439) (Influenza A virus, UniProt G9LQ08, H150R/Q136K)
[4] = target: A/Victoria/361/2011 NA with R150H (Q136, T148, H150, T439) (Influenza A virus, UniProt G9LQ08)

With `CCC(CC)[C@H](NC(C)=O)[C@@H]1[C@H](O)[C@@H](C(=O)O)C[C@H]1N=C(N)N` [Peramivir, peramivir] the IC50 [1] was 0.09 nM, the IC50 fold-change [1] was 0.09 ± 0.01 (1) fold and the IC50 [2] was 0.24 nM. The IC50 fold-change [2] was 0.24 ± 0.04 (3) fold, the IC50 [3] was 0.56 nM and the IC50 fold-change [3] was 0.56 ± 0.09 (8) fold. The IC50 [4] was 0.08 nM and the IC50 fold-change [4] was 0.08 ± 0.01 (1) fold.

Source: paper PMC10549826 (Antiviral research, 2023)
